# Structures can show the parent of a compound that is named as a salt. Where two headings read alike, the source gives them in different places.
# What was measured:
# [1] = system: cultured human mast cells; experiment: Degranulation inhibition test using cultured human mast cells (IgE cross-linking, β-Hexosaminidase release); format: cell-based; conditions: read-out: human degranulation ave. IC50
# Procedure, shortened: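 CD34+ cord-blood cells cultured ≥8 weeks with SCF/IL-6/IL-3; FcεRI primed 5 days with rhIL-4 (1 ng/mL) and hIgE (0.5 μg/mL). Compound (0.1% DMSO) preincubated 10 min at 37 °C, then anti-IgE (final 10 μg/mL) 30 min; released β-hexosaminidase read at 405 nm versus total lysate, IC50 (M).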
# [2] = target: GST-Syk Full Protein (human) (Homo sapiens, UniProt P43405); experiment: Syk kinase inhibition test (HTRF method); format: biochemical
# Procedure, shortened: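 Human GST-Syk full-length (6.4 nM) phosphorylated biotin-EDPDYEWPSA-NH2 (250 nM) with 100 μM ATP in HEPES pH 7.0/MgCl2 buffer, 2% DMSO, 30 min at room temperature. EDTA stop, then HTRF detection (streptavidin-XL665, Eu anti-phosphotyrosine) after 1 h; 665/620 ratio read.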
# [3] = Mast cell, Tables 1-x, compounds A, cultured human mast cells
# [4] = Tables 1-x, compounds A, read-out: sykHTRF ave IC50
# [5] = Mast cell, Tables 2-x, thiophene compounds B, cultured human mast cells
# [6] = Tables 2-x, thiophene compounds B, read-out: sykHTRK ave IC50
# [7] = Mast cell, cultured human mast cells, anti-hIgE stimulation, β-Hexosaminidase index, average
# [8] = HTRF, 100 μM ATP, 30 min room temperature, average, read-out: sykHTRF ave IC50
smiles,measurement,setting,value
"Cc1ccnc(Nc2cccc(-c3cnc(N4CCC(C)(CC(=O)O)CC4)s3)n2)c1 [Compound A-613, (4-methyl-1-{5-[6-(4-methylpyridin-2-ylamino)pyridin-2-yl]thiazol-2-yl}piperidin-4-yl)acetic acid dihydrochloride]",IC50,[1]; [3],100 to 1000 nM
same,IC50,[2]; [4],< 100 nM
Cc1ccnc(Nc2cccc(-c3cnc([C@@H]4CN(C)C(=O)O4)s3)n2)c1 [Compound A-405],IC50,[1]; [3],100 to 1000 nM
same,IC50,[2]; [4],100 to 1000 nM
CC(=O)c1ccc(-c2cccc(Nc3cc(NC(C)C)ccn3)n2)s1 [Compound B-63],IC50,[1]; [5],> 1000 nM
same,IC50,[2]; [6],> 1000 nM
"Cc1ccnc(Nc2cccc(-c3cnc(N4CCC[C@@H](CO)C4)s3)n2)c1 [Compound A-532, ((R)-1-{5-[6-(4-methylpyridin-2-ylamino)pyridin-2-yl]thiazol-2-yl}piperidin-3-yl)methanol]",IC50,[1]; [3],< 100 nM
same,IC50,[2]; [4],< 100 nM
Cc1ccnc(Nc2cccc(-c3cnc(CCCCCNC(=O)OC(C)(C)C)s3)n2)c1 [Compound A-127],IC50,[1]; [7],> 1000 nM
same,IC50,[2]; [8],> 1000 nM
CCOC(=O)c1nc([C@H](C)N)sc1-c1cccc(Nc2cc(C)ccn2)n1 [Compound A-101],IC50,[1]; [7],> 1000 nM
same,IC50,[2]; [8],> 1000 nM
"Cc1ccnc(Nc2cccc(-c3cnc(CCc4ccc(C(=O)NCCO)cc4)s3)n2)c1 [Compound A-162, N-(2-hydroxyethyl)-4-(2-{5-[6-(4-methylpyridin-2-ylamino)pyridin-2-yl]thiazol-2-yl}ethyl)benzamide]",IC50,[1]; [7],100 to 1000 nM
same,IC50,[2]; [8],< 100 nM
Cc1ccnc(Nc2cccc(-c3ccc(C(=NO)C(C)C)s3)n2)c1 [Compound B-50],IC50,[1]; [5],> 1000 nM
same,IC50,[2]; [6],100 to 1000 nM
CC(=O)c1ccc(-c2cccc(Nc3ccccn3)n2)s1 [Compound B-67],IC50,[1]; [5],> 1000 nM
same,IC50,[2]; [6],100 to 1000 nM
CC(=O)O/N=C(\C)c1ccc(-c2cccc(Nc3cc(C)ccn3)n2)s1 [Compound B-86],IC50,[1]; [5],100 to 1000 nM
same,IC50,[2]; [6],100 to 1000 nM
CC(=O)O[C@@H]1C[C@@H](c2ncc(-c3cccc(Nc4cc(C)ccn4)n3)s2)N(C(C)=O)C1 [Compound A-93],IC50,[1]; [7],> 1000 nM
same,IC50,[2]; [8],100 to 1000 nM
Cc1ccnc(Nc2cccc(-c3cnc(C4CCN(C(=O)N5CCC(=O)CC5)CC4)s3)n2)c1 [Compound A-250],IC50,"[1]; Homo sapiens, Mast cell, cultured human mast cells, anti-hIgE stimulation, β-Hexosaminidase index, average",100 to 1000 nM
same,IC50,[2]; [8],100 to 1000 nM
"Cc1ccnc(Nc2cccc(-c3cnc(N4CCC(C(C)C(=O)O)CC4)s3)n2)c1 (stereo not shown) [Compound A-652, 2-(1-{5-[6-(4-methylpyridin-2-ylamino)pyridin-2-yl]thiazol-2-yl}piperidin-4-yl)propionic acid]",IC50,[1]; [3],< 100 nM
same,IC50,[2]; [4],< 100 nM
"Cc1ccnc(Nc2cccc(-c3cnc([C@H]4CC[C@H](CNC(=O)CO)CC4)s3)n2)c1 [Compound A-235, 2-hydroxy-N-(trans-4-{5-[6-(4-methylpyridin-2-ylamino)pyridin-2-yl]thiazol-2-yl}cyclohexylmethyl)acetamide]",IC50,[1]; [7],100 to 1000 nM
same,IC50,[2]; [8],< 100 nM
CC(=O)NCCCCCc1ncc(-c2cccc(Nc3cc(C)ccn3)n2)s1 [Compound A-129],IC50,[1]; [7],> 1000 nM
same,IC50,[2]; [8],100 to 1000 nM
"Cc1ccnc(Nc2cccc(-c3cnc(N4CCC[C@@H](C(N)=O)C4)s3)n2)c1 [Compound A-533, (R)-1-{5-[6-(4-methylpyridin-2-ylamino)pyridin-2-yl]thiazol-2-yl}piperidine-3-carboxamide]",IC50,[1]; [3],100 to 1000 nM
same,IC50,[2]; [4],< 100 nM
Cc1ccnc(Nc2cccc(-c3cnc([C@@H](N)CCC(=O)O)s3)n2)c1 [Compound A-106],IC50,[1]; [7],> 1000 nM
same,IC50,[2]; [8],100 to 1000 nM
"Cc1ccnc(Nc2cccc(-c3cnc(N(C)[C@H]4CC[C@H](O)CC4)s3)n2)c1 [Compound A-480, trans-4-(N-methyl-N-{5-[6-(4-methylpyridin-2-ylamino)pyridin-2-yl]thiazol-2-yl}amino)cyclohexanol]",IC50,[1]; [3],100 to 1000 nM
same,IC50,[2]; [4],< 100 nM
"CCOC(=O)c1ncc(-c2cccc(Nc3cc(C)ccn3)n2)s1 [Compound A-28, 5-[6-(4-methylpyridin-2-ylamino)pyridin-2-yl]thiazole-2-carboxylic acid ethyl ester]",IC50,[1]; [7],100 to 1000 nM
same,IC50,[2]; [8],< 100 nM
Cc1ccnc(Nc2cccc(-c3cnc([C@@H](N)COCc4ccccc4)s3)n2)c1 [Compound A-44],IC50,[1]; [7],> 1000 nM
same,IC50,[2]; [8],> 1000 nM
CC(=O)Oc1ccc(CC(OC(C)=O)c2ncc(-c3cccc(Nc4cc(C)ccn4)n3)s2)cc1 (stereo not shown) [Compound A-360],IC50,[1]; [7],> 1000 nM
same,IC50,[2]; [8],> 1000 nM
"Cc1ccnc(Nc2cccc(-c3cnc(CCCCO)s3)n2)c1 [Compound A-132, 4-{5-[6-(4-methylpyridin-2-ylamino)pyridin-2-yl]thiazol-2-yl}butan-1-ol]",IC50,[1]; [7],100 to 1000 nM
same,IC50,[2]; [8],< 100 nM
"Cc1ccnc(Nc2cccc(-c3cnc(CN4CCNC(=O)C4)s3)n2)c1 [Compound A-351, potassium carbonate 4-{5-[6-(4-methylpyridin-2-ylamino)pyridin-2-yl]thiazol-2-ylmethyl}piperazin-2-one]",IC50,[1],100 to 1000 nM
same,IC50,[2]; [8],< 100 nM
Cc1ccnc(Nc2cccc(-c3cnc(CCC4CCN(C(=O)C5CCC(O)CC5)CC4)s3)n2)c1 (stereo not shown) [Compound A-294],IC50,[1]; [7],> 1000 nM
same,IC50,[2]; [8],100 to 1000 nM
CC(=O)c1cc(C)c(-c2cccc(Nc3cc(C)ccn3)n2)s1 [Compound B-6],IC50,[1]; [5],100 to 1000 nM
same,IC50,[2]; [6],100 to 1000 nM
"Cc1ccnc(Nc2cccc(-c3cnc(N4CCN(CC(=O)O)CC4)s3)n2)c1 [Compound A-589, (4-{5-[6-(4-methylpyridin-2-ylamino)pyridin-2-yl]thiazol-2-yl}piperazin-1-yl)acetic acid dihydrochloride]",IC50,[1]; [3],> 1000 nM
same,IC50,[2]; [4],< 100 nM
Cc1ccnc(Nc2cccc(-c3cnc(CN4CCOCC4)s3)n2)c1 [Compound A-193],IC50,[1]; [7],100 to 1000 nM
same,IC50,[2]; [8],100 to 1000 nM
"CNC(=O)c1ncc(-c2cccc(Nc3cc(C)ccn3)n2)s1 [Compound A-47, N-methyl-5-[6-(4-methylpyridin-2-ylamino)pyridin-2-yl]thiazole-2-carboxamide]",IC50,[1]; [7],100 to 1000 nM
same,IC50,[2]; [8],< 100 nM
Cc1ccnc(Nc2cccc(-c3cnc(CN[C@H]4CC[C@H](O)CC4)s3)n2)c1 [Compound A-191],IC50,[1]; [7],100 to 1000 nM
same,IC50,[2]; [8],100 to 1000 nM
Cc1ccnc(Nc2cccc(-c3ccc(C(=O)CCO)s3)n2)c1 [Compound B-57],IC50,[1]; [5],100 to 1000 nM
same,IC50,[2]; [6],100 to 1000 nM
"Cc1ccnc(Nc2cccc(-c3cnc([C@H]4CC[C@H](C(=O)N5CCNCC5)CC4)s3)n2)c1 [Compound A-176, (trans-4-{5-[6-(4-methylpyridin-2-ylamino)pyridin-2-yl]thiazol-2-yl}cyclohexyl)-(piperazin-1-yl)methanone]",IC50,[1]; [7],> 1000 nM
same,IC50,[2]; [8],< 100 nM
"Cc1ccnc(Nc2cccc(-c3sc(N4CCN(C=O)CC4)nc3C)n2)c1 [Compound A-437, 4-{4-methyl-5-[6-(4-methylpyridin-2-ylamino)pyridin-2-yl]thiazol-2-yl}piperazine-1-carbaldehyde]",IC50,[1]; [3],100 to 1000 nM
same,IC50,[2]; [4],< 100 nM
Cc1ccnc(Nc2cccc(-c3cnc(CCc4ccc(N)cc4)s3)n2)c1 [Compound A-218],IC50,[1]; [7],100 to 1000 nM
same,IC50,[2]; [8],100 to 1000 nM
"Cc1ccnc(Nc2cccc(-c3cnc(N(C)CCO)s3)n2)c1 [Compound A-519, 2-(N-methyl-N-{5-[6-(4-methylpyridin-2-ylamino)pyridin-2-yl]thiazol-2-yl}amino)ethanol]",IC50,[1]; [3],< 100 nM
same,IC50,[2]; [4],< 100 nM
Cc1ccnc(Nc2cccc(-c3cnc(C(C)(C)N)s3)n2)c1 [Compound A-113],IC50,[1]; [7],100 to 1000 nM
same,IC50,[2]; [8],100 to 1000 nM
CON=C(C)c1ccc(-c2cccc(Nc3cc(C)ccn3)n2)s1 [Compound B-18],IC50,[1]; [5],> 1000 nM
same,IC50,[2]; [6],100 to 1000 nM
Cc1ccnc(Nc2cccc(-c3cnc([C@H](N)c4ccc(OCc5ccccc5)cc4)s3)n2)c1 [Compound A-150],IC50,[1]; [7],> 1000 nM
same,IC50,[2]; [8],100 to 1000 nM
CC(=O)c1ccc(-c2cccc(Nc3cc(C(N)=O)ccn3)n2)s1 [Compound B-65],IC50,[1]; [5],> 1000 nM
same,IC50,[2]; [6],100 to 1000 nM
CC(=O)NC(C)c1ccc(-c2cccc(Nc3cc(C)ccn3)n2)s1 (stereo not shown) [Compound B-93],IC50,[1]; [5],100 to 1000 nM
same,IC50,[2]; [6],100 to 1000 nM
"Cc1ccnc(Nc2cccc(-c3cnc(N4CC[C@@H](OCC(=O)O)C4)s3)n2)c1 [Compound A-575, ((R)-1-{5-[6-(4-methylpyridin-2-ylamino)pyridin-2-yl]thiazol-2-yl}pyrrolidin-3-yloxy)acetic acid dihydrochloride]",IC50,[1]; [3],> 1000 nM
same,IC50,[2]; [4],< 100 nM
"Cc1ccnc(Nc2cccc(-c3cnc(N4CCCC(C(=O)O)C4)s3)n2)c1 (stereo not shown) [Compound A-474, 1-{5-[6-(4-methylpyridin-2-ylamino)pyridin-2-yl]thiazol-2-yl}piperidine-3-carboxylic acid]",IC50,[1]; [3],> 1000 nM
same,IC50,[2]; [4],< 100 nM
CC(=O)N1CCN(C(=O)[C@H]2CC[C@H](c3ncc(-c4cccc(Nc5cc(C)ccn5)n4)s3)CC2)CC1 [Compound A-289],IC50,[1]; [7],> 1000 nM
same,IC50,[2]; [8],100 to 1000 nM
Cc1ccnc(Nc2cccc(-c3cnc([C@H](C)NC(=O)c4ccc(O)cc4)s3)n2)c1 [Compound A-347],IC50,[1]; [7],100 to 1000 nM
same,IC50,[2]; [8],100 to 1000 nM
"CNC(=O)c1ccc(-c2cccc(Nc3cc(C)ccn3)n2)s1 [Compound B-11, N-methyl-5-[6-(4-methylpyridin-2-ylamino)pyridin-2-yl]thiophene-2-carboxamide]",IC50,[1]; [5],100 to 1000 nM
same,IC50,[2]; [6],< 100 nM

# Source: patent US7803801B2, “Aminopyridine compounds having Syk inhibitory activity” (Japan Tobacco, Inc., priority 2005, dated 2010)
